Measured values from PubChem BioAssay AID588757 (Broad Institute, 2011).
The source made the active and inactive calls.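 Rule for the calls: active = compounds whose fitted half-maximal concentration is at most ten times their top valid tested dose; inconclusive = flat fit showing moderate inhibition, or poor fit quality; inactive = the rest.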

target: Aurora kinase B (Homo sapiens) (UniProt Q96GD4); experiment: Aurora B kinase inhibition counter-screen, dose response, counter-screen for STK33 inhibitor project, biochemical, scintillation, dry powder (AID 588757); details: ATP at Km, gamma-32P-ATP, 40 min room temperature, P30 filtermat scintillation counting
Sequence (Q96GD4 whole entry, looked up): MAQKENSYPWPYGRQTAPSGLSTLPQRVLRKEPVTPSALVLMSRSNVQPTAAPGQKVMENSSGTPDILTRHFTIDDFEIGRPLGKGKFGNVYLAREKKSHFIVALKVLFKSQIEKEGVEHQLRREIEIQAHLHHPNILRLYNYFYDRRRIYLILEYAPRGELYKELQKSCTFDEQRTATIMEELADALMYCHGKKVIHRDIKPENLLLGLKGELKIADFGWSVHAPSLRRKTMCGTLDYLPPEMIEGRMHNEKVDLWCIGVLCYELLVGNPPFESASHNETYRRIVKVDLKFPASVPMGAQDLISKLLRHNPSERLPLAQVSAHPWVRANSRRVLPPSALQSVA

AC50	Compound
170 nM	CCCn1c(NC(=O)c2cccc(S(=O)(=O)N3CCCC3)c2)nc2ccccc21
346 nM	Cc1ncc(/C=C2\C(=O)Nc3ccccc32)[nH]1
> 3000 nM (inactive)	CCOc1ccccc1C(=O)Nc1cc(Cl)ccc1O
1660 nM	O=C(Nc1ccccc1-c1ccccc1)c1ccc(Br)o1
1470 nM	CC(C)n1cnc2c(Nc3cccc(Cl)c3)nc(NCCO)nc21
142 nM	Oc1ccc(Nc2nc(-c3ccccc3O)nc3ccccc23)cc1
12.6 nM	Nc1nc(-c2cc(O)ccc2[N+](=O)[O-])cc(-c2ccccc2)c1[N+](=O)[O-]

same assay, conditions: ATP at Km, gamma-32P-ATP, 40 min room temperature, P30 filtermat scintillation counting, at 3 µM (top of the series)

activity change, negative = inhibition	Compound
inactive	O=S(=O)(c1cccc2cnccc12)N1CCCNCC1
inactive	O=C(Nc1ccccc1-c1nc2ccccc2[nH]c1=O)c1cccs1
inactive	COc1cc(/C=C2\SC(N)=NC2=O)ccc1O
inactive	COc1cc(/C=N/n2c(-c3ccccc3)n[nH]c2=S)ccc1O
inactive	COc1cc(C(=O)NC2CCN(C)CC2)ccc1Nc1ncc2c(n1)N(C1CCC(O)CC1)CCC(=O)N2C (centres undefined)
inactive	CC(=O)N(C)c1ccc(N=Cc2c(O)ccc3ccccc23)cc1
inactive	COC(=O)c1ccc(COc2ccccc2/C=C/C(=O)c2ccc(OCC(=O)O)cc2)cc1
